From PubChem BioAssay (NCI)
Where “and” joins values, the source holds several entries; their conditions need not be identical. Equal values may be shown once.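 Tested at 5 concentrations; 48 h exposure; 96-well plates; endpoints linearly interpolated, else capped at highest concentration. Abbreviation: GI50, concentration required for 50% inhibition of growth. TGI marks complete inhibition of growth.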

Key:
Assay in all cases: NCI-60 cell line screen, 48 h
SNB-19 CNS = test system: SNB-19 CNS
SF-268 CNS = test system: SF-268 CNS
SK-MEL-28 melanoma = test system: SK-MEL-28 melanoma
TK-10 renal = test system: TK-10 renal
IGROV1 ovarian = test system: IGROV1 ovarian
HT29 colon = test system: HT29 colon
HCT-116 colon = test system: HCT-116 colon
UACC-257 melanoma = test system: UACC-257 melanoma
OVCAR-4 ovarian = test system: OVCAR-4 ovarian
SK-OV-3 ovarian = test system: SK-OV-3 ovarian

Row | SMILES | GI50 (SNB-19 CNS) [µM] | TGI (SNB-19 CNS) | GI50 (SF-268 CNS) | TGI (SF-268 CNS) | GI50 (SK-MEL-28 melanoma) [µM] | TGI (SK-MEL-28 melanoma) | GI50 (TK-10 renal) [µM] | TGI (TK-10 renal) | GI50 (IGROV1 ovarian) [µM] | TGI (IGROV1 ovarian) | GI50 (HT29 colon) [µM] | TGI (HT29 colon) | GI50 (HCT-116 colon) [µM] | TGI (HCT-116 colon) | GI50 (UACC-257 melanoma) [µM] | TGI (UACC-257 melanoma) [µM] | GI50 (OVCAR-4 ovarian) [µM] | TGI (OVCAR-4 ovarian) | GI50 (SK-OV-3 ovarian) [µM] | TGI (SK-OV-3 ovarian) [µM]
1 | OCc1ccc(-c2csc(-c3ccc(CO)o3)c2)o1 | > 76.4 | > 100 µM | 71.9 µM | > 100 µM | 34.2 | > 100 µM | 0.64 | > 37.1 µM | 0.926 | > 100 µM | 36.6 | > 100 µM | 5.71 | > 100 µM | 1.56 | 4.75 | 6.43 | > 100 µM | 26.1 | > 100
2 | CCn1c(-c2nonc2N)nc2c(C#CC(C)(C)O)ncc(OC3CCNCC3)c21 | 7.83 | > 25 µM | 16.6 µM | > 25 µM | 14.9 | > 25 µM | 6.6 | > 25 µM | 0.696 | > 25 µM | 8.93 | > 25 µM | 8.15 | > 25 µM | > 25 | > 25 | 14.1 | > 25 µM | 3.86 | > 25
3 | O=C(CCCn1c2c(sc3ccccc32)c(=O)n2nnc(-c3ccccc3)c12)NCCc1cnc[nH]1 | 2.97 | 14.7 µM | 1.8 µM | 4.35 µM | 1.01 | 2.36 µM | 2 | 3.75 µM | 0.0997 | 2.07 µM | 0.719 | 2.36 µM |  |  | 2.2 | 4.39 | 1.84 | 4.33 µM | 2 | 6.04
4 | COc1ccc(-c2cc(/C=C3\C(=O)Nc4cc(Cl)ccc43)[nH]n2)cc1 | 4.65 | > 100 µM | 5.84 µM | > 100 µM | 7.45 | > 100 µM | 7.74 | > 100 µM | 4.76 | > 100 µM | 3.32 | 13.1 µM | 3.63 | > 100 µM | 26.3 | > 100 | 6.79 | 94.1 µM | 4.23 | > 100
5 | C/C(CCC(=O)O)=N/Nc1ccc([N+](=O)[O-])cc1 | > 100 | > 100 µM | 29 µM | > 100 µM | > 100 | > 100 µM | > 100 | > 100 µM | > 100 | > 100 µM | > 100 | > 100 µM | 4.31 | > 100 µM | 70.6 | > 100 | > 100 | > 100 µM | > 100 | > 100
6 | CN(C)C1CCN(Cc2ccc(NC(=O)c3cncc(C#Cc4cnc(N)c5ncccc45)c3)cc2C(F)(F)F)CC1 | 10 | 21.2 µM | 1.68 µM | 4.72 µM | 0.912 | 1.74 µM | 9.69 | 19.5 µM | 9.48 | 19.9 µM | 1.3 | 6.82 µM | 8.28 | 18 µM | 1.43 | 3.97 | 1.9 | 9.24 µM |  | 
7 | O=C1C(=c2ccc(=C3C(=O)c4ccc([N+](=O)[O-])cc4[N+]3=O)cc2)N([O-])c2cc([N+](=O)[O-])ccc21 | > 100 | > 100 µM |  |  | > 100 | > 100 µM |  |  | > 100 | > 100 µM | > 100 | > 100 µM | > 100 | > 100 µM | > 100 | > 100 | > 100 | > 100 µM | > 100 | > 100
8 | CN1CC=C(c2cc(NC(=O)Nc3ccc(Oc4ccnc(NC(=O)C5CC5)c4)c(F)c3)cc(C(F)(F)F)c2)CC1 | 0.227 | 1.48 µM | 0.206 µM | 1.41 µM | 1.23 | 3.07 µM | 1.62 | 3.91 µM | 0.244 | 1.34 µM | 0.166 | 0.678 µM | 0.167 | 1.68 µM | 1.34 | 3.24 | 0.26 | 2.35 µM | 2.74 | 7.25
9 | COc1cc2c(c(O)c1Cl)C(=O)c1c(O)cc(C[C@H](C)O)cc1[C@H]2[C@H]1c2cc(C[C@H](C)O)cc(O)c2C(=O)c2c1cc(OC)c(Cl)c2O |  | 75 µM and > 100 µM | 3.36 µM and 31.5 µM | 75 µM and > 100 µM |  | 75 µM and > 100 µM |  | 33 µM and > 100 µM |  | 39 µM and > 100 µM |  | 75 µM and > 100 µM |  | 75 µM and > 100 µM |  |  |  | 75 µM and > 100 µM |  | 
10 | C/C(CCn1[nH]c(=O)ccc1=O)=N\NC(=O)C(N)=O |  | > 100 µM |  | > 100 µM |  | > 100 µM |  | > 100 µM |  | > 100 µM |  | > 100 µM |  | > 100 µM |  | > 100 |  | > 100 µM |  | 
11 | O=Cc1cccc2ccc3ccccc3c12 |  | 65.5 µM |  | 43.1 µM |  |  |  | 40.2 µM |  |  |  | 54.2 µM |  | 39.4 µM |  | > 100 |  |  |  | 46.5
12 | O=C(CCC(=O)Nc1ccc(Cl)c(Cl)c1)CC(=O)c1ccc2ccccc2c1 |  | > 100 µM |  | > 100 µM |  | > 100 µM |  | > 100 µM |  | > 100 µM |  | > 100 µM |  | > 100 µM |  | > 100 |  | > 100 µM |  | 
13 | COc1cc(-c2cc3ncccc3c3nc(OCCN(C)C)c4cccnc4c23)cc(OC)c1OC | 0.576 | 29.5 µM | 0.637 µM | 11 µM | 0.639 | 2.42 µM | 0.294 | 1.39 µM | 0.466 | 1.99 µM | 0.383 | > 100 µM |  |  | 0.567 | 4.06 | 0.418 | 2.52 µM | 0.458 | 2.18
14 | O=C(C=Nc1ccccc1C(=O)[O-])c1cccs1.O=C(C=Nc1ccccc1C(=O)[O-])c1cccs1.[Ni+2] |  | > 100 µM |  | > 100 µM |  | > 100 µM |  | > 100 µM |  | > 100 µM |  | > 100 µM |  | > 100 µM |  | > 100 |  |  |  | > 100
15 | O=C(O)CN(c1ccccc1)S(=O)(=O)c1cccc([N+](=O)[O-])c1 |  | > 100 µM |  | > 100 µM |  | > 100 µM |  | > 100 µM |  | > 100 µM |  | > 100 µM |  |  |  | > 100 |  | > 100 µM |  | > 100
